Experimental data taken from US20220387468A1, “METHODS OF TREATING CANCER” (ASTRAZENECA AB, priority 2019, published 2022).

What was measured:
[1] = system: DU145 isogenic cells (WT and SLFN11 KO); format: cell-based; details: SLFN11 KO cells compared to wild type DU145 cells; 72 hours; FIG. 2D
Description: For cell survival experiment in 96 well plate, cells were seeded in 96-well plates, following compound dosing using a HP dispenser. 72 hours later, cell viability was determined with end-point CellTiter-Glo luminescent assays (Promega). Percentage growth was calculated using the equation (T−T0)/(C−T0)×100, where T=compound-treated cells; T0=cells at 0 h time point and C=control cells. Dose response curves were plotted in GraphPad prism.

[2] = system: pancreatic cancer cell lines (SLFN11-deficient or SLFN11-proficient); assay: Pancreatic cell line panel, 6x6 concentration matrix, live-dead SyTox green assay, Loewe synergy; format: cell-based
From the text: SLFN11 RNA seq data (log 2 RPKM values) were downloaded from cancer cell line encyclopedia (CCLE) (Barretina J. et al., Nature, 2012; 483: 603-607) and drug response data (log(IC50) and area under the dose-response curve (AUCs)) from drug sensitivity in cancer database (Yang W et al., Nucleic Acids Res, 2013; 41: […]-61). Cell lines with CCLE RNA seq log 2 RPKM values below 1 were defined as SLFN11-deficient and cell lines with log 2 RPKM values above 1 as SLFN11-proficient. Nineteen pancreatic cell lines in 384-well plates were dosed with increasing concentrations of adavosertib and gemcitabine in a 6×6 concentration matrix using an Echo 555 (LabCyte). The dose range was 0-3 μM for adavosertib, and 0-0.3 μM for gemcitabine; in both cases dilutions 1:3 from the top dose were performed. Five days following continuous treatment, cell viability was determined by live-dead SyTox green assay (Life Technologies, Carlsbad, Calif., USA). Synergy was analyzed in Genedata screener software using the Loewe dose-additivity model as described above.

| SMILES | sensitivity to DDA monotherapy (survival curves) [1] | response (log IC50) of SLFN11-deficient versus SLFN11-proficient cell lines ([2]; adavosertib monotherapy, FIG. 3B) | sensitivity (log IC50) of SLFN11-deficient versus SLFN11-proficient cell lines, fold less sensitive ([2]; gemcitabine monotherapy, on average, FIG. 3A) [times] |
| --- | --- | --- | --- |
| CC[C@@]1(O)C(=O)OCc2c1cc1n(c2=O)Cc2cc3ccccc3nc2-1 [camptothecin] | resistant | – | – |
| COc1cc([C@@H]2c3cc4c(cc3[C@@H](O[C@@H]3O[C@@H]5CO[C@@H](C)O[C@H]5[C@H](O)[C@H]3O)[C@H]3COC(=O)[C@H]23)OCO4)cc(OC)c1O [etoposide] | resistant | – | – |
| N.N.[Cl][Pt][Cl] [cisplatin] | resistant | – | – |
| C=CCn1c(=O)c2cnc(Nc3ccc(N4CCN(C)CC4)cc3)nc2n1-c1cccc(C(C)(C)O)n1 [adavosertib] | – | same response | – |
| Nc1ccn([C@@H]2O[C@H](CO)[C@@H](O)C2(F)F)c(=O)n1 [gemcitabine] | resistant | – | 100 |
| NC(=O)NO [hydroxyurea] | resistant | – | – |
